{"source": "patent US20260263505A1", "about": "“Uses of Compositions Comprising a Prebiotic Component” (Mead Johnson Nutrition Company, priority 2021, published 2026)", "test_system": "male Sprague Dawley rats", "test": "Telemetric sleep/wake recording at baseline and after inescapable tail shock stress, following early life diet (P21-P51)", "format": "in vivo, rat", "settings": "mean ± SEM", "excerpt": "The aim of this study was to investigate the extent to which early life dietary oligosaccharides and/or polydextrose (PDX+GOS) modulate sleep and protect sleep architecture following stress.\nTimed-pregnant female Sprague Dawley rats were purchased from Charles River Laboratories International, Inc., (Hollister, CA and Canada). Male pups were weaned at postnatal day 21 (P21) and randomised into one of five treatment groups (see Table 6 below). All rats were housed in a temperature-controlled recording room under a 12 hour light: dark cycle with food and water available ad libitum. Environmental conditions were regulated, and room temperature (24±2° C.), humidity (50±20% relative humidity), and lighting were monitored and recorded. Animals were inspected daily.\nAll experimenters were blind to type of diet administered to each group. The diets were formulated by Mead Johnson Nutrition (MJN, Evansville IN) based on AlN-93G specifications to be isocaloric and have similar carbohydrate, protein, fat, vitamin and mineral levels. Experimental diets contained 7.0 g/kg galactooligosaccharides (GOS), 7.0 g/kg polydextrose (PDX) and/or 2.2 g/kg sialyllactose (SL). Diets were produced by Envigo (Indianapolis, IN), and ingredients were supplied by: PDX (Danisco, Terre Haute, IN), GOS (Friesland Campina, Zwolle, The Netherlands) and SL (SAL-10; Arla Foods Ingredients, Aarhus, Denmark).\nA total of n=105 male Sprague Dawley rats were used in this study with a subset of animals (n=40) used for sleep/wake analysis. Upon weaning (P21), rats were randomised into one of five treatment groups, based upon diet and exposure to a stressor, as follows:\nThe experimental protocol consisted of two phases a diet manipulation phase and a sleep-stressor phase. During the diet manipulation phase, rat weanlings were randomised to either the control diet or one of the three formulated diets. Rats were provided these diets from age P21 to P51, after which all animals were given standard chow. During this diet-manipulation phase, body weights were recorded twice per week and food consumption determined for weekly intervals.\nThe second phase of the protocol consisted of telemetric recordings, exposure to stressor, and behavioural assessment. Telemeters were implanted on P64 and undisturbed baseline recordings obtained on P84.\nRats in groups 2 to 5 were exposed to inescapable shock stress (uncontrollable stress paradigm) on P85 using previously published protocols (Greenwood et al., Behav Brain Res. 2012 Aug. 1; 233(2): 314-321). Briefly, rats were restrained in Plexiglass tubes and received ~100, 5 s tail shocks (1.5 mA) on a […] variable-interval schedule. Stress protocols were conducted during the beginning of the light period. After the end of the stress protocol, rats were returned to their home cages. Home-cage control animals (no stress) remained undisturbed during this period.", "key": {"[1]": {"settings": "Dark period (ZT13-24), Baseline"}, "[2]": {"settings": "Dark period (ZT13-24), Post-stress"}, "[3]": {"settings": "Light period (ZT5-12), Baseline"}, "[4]": {"settings": "Light period (ZT5-12), Post-stress"}}}
{"substance": "sialyllactose [SL]", "values": [{"measurement": "NREMS bout duration", "setting": "[1]", "result": "1.3 ± 0.1", "unit": "min"}, {"measurement": "NREMS bouts", "setting": "[1]", "result": "11.9 ± 1.1", "unit": "number/h"}, {"measurement": "NREMS duration", "setting": "[1]", "result": "30.1 ± 3.0", "unit": "% recording time"}, {"measurement": "REMS bout duration", "setting": "[1]", "result": "0.9 ± 0.1", "unit": "min"}, {"measurement": "REMS bouts", "setting": "[1]", "result": "2.8 ± 0.4", "unit": "number/h"}, {"measurement": "REMS duration", "setting": "[1]", "result": "6.0 ± 0.9", "unit": "% recording time"}, {"measurement": "Wake bout duration", "setting": "[1]", "result": "10.9 ± 2.2", "unit": "min"}, {"measurement": "Wake bouts", "setting": "[1]", "result": "8.3 ± 0.6", "unit": "number/h"}, {"measurement": "Wake duration", "setting": "[1]", "result": "63.9 ± 3.8", "unit": "% recording time"}, {"measurement": "NREMS bout duration", "setting": "[2]", "result": "1.5 ± 0.1", "unit": "min"}, {"measurement": "NREMS bouts", "setting": "[2]", "result": "17.7 ± 1.3", "unit": "number/h"}, {"measurement": "NREMS duration", "setting": "[2]", "result": "[43.7 ± 1.7**] % recording time"}, {"measurement": "REMS bout duration", "setting": "[2]", "result": "[1.3 ± 0.1*] min"}, {"measurement": "REMS bouts", "setting": "[2]", "result": "[5.5 ± 0.5**] number/h"}, {"measurement": "REMS duration", "setting": "[2]", "result": "[12.3 ± 1.0**] % recording time"}, {"measurement": "Wake bout duration", "setting": "[2]", "result": "4.1 ± 0.8", "unit": "min"}, {"measurement": "Wake bouts", "setting": "[2]", "result": "10.4 ± 1.1", "unit": "number/h"}, {"measurement": "Wake duration", "setting": "[2]", "result": "[43.9 ± 2.4**] % recording time"}, {"measurement": "NREMS bout duration", "setting": "[3]", "result": "1.5 ± 0.1", "unit": "min"}, {"measurement": "NREMS bouts", "setting": "[3]", "result": "20.1 ± 1.5", "unit": "number/h"}, {"measurement": "NREMS duration", "setting": "[3]", "result": "51.0 ± 3.1", "unit": "% recording time"}, {"measurement": "REMS bout duration", "setting": "[3]", "result": "1.2 ± 0.1", "unit": "min"}, {"measurement": "REMS bouts", "setting": "[3]", "result": "5.3 ± 0.6", "unit": "number/h"}, {"measurement": "REMS duration", "setting": "[3]", "result": "12.6 ± 1.3", "unit": "% recording time"}, {"measurement": "Wake bout duration", "setting": "[3]", "result": "3.5 ± 1.1", "unit": "min"}, {"measurement": "Wake bouts", "setting": "[3]", "result": "10.1 ± 0.6", "unit": "number/h"}, {"measurement": "Wake duration", "setting": "[3]", "result": "36.4 ± 4.2", "unit": "% recording time"}, {"measurement": "NREMS bout duration", "setting": "[4]", "result": "2.1 ± 0.1", "unit": "min"}, {"measurement": "NREMS bouts", "setting": "[4]", "result": "16.8 ± 1.1", "unit": "number/h"}, {"measurement": "NREMS duration", "setting": "[4]", "result": "56.1 ± 2.1", "unit": "% recording time"}, {"measurement": "REMS bout duration", "setting": "[4]", "result": "1.6 ± 0.0", "unit": "min"}, {"measurement": "REMS bouts", "setting": "[4]", "result": "5.3 ± 0.7", "unit": "number/h"}, {"measurement": "REMS duration", "setting": "[4]", "result": "14.4 ± 1.7", "unit": "% recording time"}, {"measurement": "Wake bout duration", "setting": "[4]", "result": "3.0 ± 0.7", "unit": "min"}, {"measurement": "Wake bouts", "setting": "[4]", "result": "7.8 ± 0.6", "unit": "number/h"}, {"measurement": "Wake duration", "setting": "[4]", "result": "29.5 ± 3.5", "unit": "% recording time"}]}
